Data: ChEMBL document CHEMBL5143567, “Dose Number as a Tool to Guide Lead Optimization for Orally Bioavailable Compounds in Drug Discovery” (J Med Chem, 2022)
Converted amounts (≈) assume the structure as drawn.

Key:
[1] = Aqueous solubility of the compound in buffer; type: physicochemical
[2] = Aqueous solubility of the compound; type: physicochemical; settings: buffer
[3] = Permeability in MDCK-II cells; type: ADME, cell-based, Canis lupus familiaris; settings: dog, read-out: permeability
[4] = Aqueous solubility of the compound in FaSSIF at pH 6.5 measured by dissolution tester; type: physicochemical
[5] = Permeability in human Caco-2 cells; type: ADME, cell-based; settings: read-out: permeability
[6] = Aqueous solubility of the compound in FaSSIF; type: physicochemical
[7] = Permeability in pig LLC-PK1 cells; type: ADME, cell-based, Sus scrofa; settings: read-out: permeability
[8] = Aqueous solubility of the compound at pH 1.8; type: physicochemical; settings: buffer
[9] = Aqueous solubility of the compound at pH 5; type: physicochemical; settings: buffer
physchem = settings: phosphate buffer, pH 6.8
Description: Aqueous solubility of the compound in phosphate buffer at pH 6.8 measured after 72 hrs by UV-Vis spectrophotometer

[10] = Permeability in rat jejunum; type: ADME, tissue-based; settings: read-out: permeability

CC(C)(C)c1cc(C(C)(C)C)c(NC(=O)c2c[nH]c3ccccc3c2=O)cc1O [IVACAFTOR]
solubility [1]: < 0.05 µg/mL

Cc1cc(C#N)cc(C)c1Oc1nc(Nc2ccc(C#N)cc2)nc(N)c1Br [ETRAVIRINE]
solubility [2]: < 1 µg/mL

COC(=O)N[C@H](C(=O)N1CCC[C@H]1c1nc2cc([C@H]3CC[C@H](c4cc5nc([C@@H]6CCCN6C(=O)[C@@H](NC(=O)OC)[C@@H](C)OC)[nH]c5cc4F)N3c3cc(F)c(N4CCC(c5ccc(F)cc5)CC4)c(F)c3)c(F)cc2[nH]1)[C@@H](C)OC [PIBRENTASVIR]
Papp [3]: < 1 ×10⁻⁶ cm/s

CCCS(=O)(=O)Nc1ccc(F)c(C(=O)c2c[nH]c3ncc(-c4ccc(Cl)cc4)cc23)c1F [VEMURAFENIB]
solubility [4]: 2 µg/mL (≈ 4.08 µM)
Papp [5]: 2.9 ×10⁻⁶ cm/s

Cc1ccc(-n2nccn2)c(C(=O)N2CCN(c3nc4cc(Cl)ccc4o3)CC[C@H]2C)c1 [SUVOREXANT]
solubility [6]: 9 µg/mL (≈ 20 µM)
Papp [7]: 22.8 ×10⁻⁶ cm/s

COC(=O)N[C@H](C(=O)N1CCC[C@H]1c1nc(-c2ccc3c(c2)O[C@@H](c2ccccc2)n2c-3cc3cc(-c4c[nH]c([C@@H]5CCCN5C(=O)[C@@H](NC(=O)OC)C(C)C)n4)ccc32)c[nH]1)C(C)C [ELBASVIR]
solubility [8]: > 5 µg/mL
solubility [9]: 50 µg/mL (≈ 56.7 µM)
Papp [3]: 0.8 ×10⁻⁶ cm/s

CCC[C@H](NC(=O)[C@@H]1[C@H]2CCC[C@H]2CN1C(=O)[C@@H](NC(=O)[C@@H](NC(=O)c1cnccn1)C1CCCCC1)C(C)(C)C)C(=O)C(=O)NC1CC1
Papp [5]: > 4.4 ×10⁻⁶ cm/s
solubility at 72 h (physchem): 4.7 µg/mL (≈ 6.91 µM)

C=CC[C@@H]1/C=C(\C)C[C@H](C)C[C@H](OC)[C@H]2O[C@@](O)(C(=O)C(=O)N3CCCC[C@H]3C(=O)O[C@H](/C(C)=C/[C@@H]3CC[C@@H](O)[C@H](OC)C3)[C@H](C)[C@@H](O)CC1=O)[C@H](C)C[C@@H]2OC [TACROLIMUS ANHYDROUS]
solubility [2]: 1.3 µg/mL (≈ 1.62 µM)
Papp [10]: 18 ×10⁻⁶ cm/s

C=C[C@@H]1C[C@]1(NC(=O)[C@@H]1C[C@@H]2CN1C(=O)[C@H](C(C)(C)C)NC(=O)O[C@@H]1C[C@H]1CCCCCc1nc3ccc(OC)cc3nc1O2)C(=O)NS(=O)(=O)C1CC1 [GRAZOPREVIR ANHYDROUS]
solubility [6]: < 7 µg/mL
Papp [7]: 19 ×10⁻⁶ cm/s

CC(C)c1nc(CN(C)C(=O)N[C@H](C(=O)N[C@@H](Cc2ccccc2)C[C@H](O)[C@H](Cc2ccccc2)NC(=O)OCc2cncs2)C(C)C)cs1 [RITONAVIR]
Papp [5]: 20 ×10⁻⁶ cm/s
